In US7678918B2, “Intermediates for imidazonaphthyridines” (3M Innovative Properties Company, priority 1997, dated 2010) one finds melting point, TNF induction and IFN induction data, which are given here for 29 compounds.

One series has as its system TNF. Nature of the series: Cytokine Induction in Human Cells: tumor necrosis factor (TNF) secreted by PBMCs, ELISA. Further: call rule not given here. It counts as cell-based. Conditions: 18 to 24 hours. In a few lines:
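Human donor PBMCs at 1.5-2×10^6 cells/mL in RPMI with 10% FBS were exposed to compound, generally at 0.1 to 100 μM (≤1% DMSO final), for 18 to 24 h at 37 °C. Secreted TNF in supernatant was measured by ELISA and reported as pg/mL.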
On the technique in general: An ELISA detects its analyte on a solid surface through an enzyme-linked reagent.

In a further series the test system is IFN. Nature of the series: Cytokine Induction in Human Cells: interferon (IFN) secreted by PBMCs, A549/encephalomyocarditis bioassay. Further: call rule not given here. It counts as cell-based. Conditions: 18 to 24 hours. In a few lines:
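Human PBMCs from healthy donors at 1.5-2×10^6 cells/mL in RPMI with 10% FBS, exposed to compounds (typically 0.1 to 100 μM, ≤1% DMSO) for 18 to 24 h at 37° C. Secreted IFN measured by A549/encephalomyocarditis virus cytopathic-effect bioassay, in alpha reference units/mL against NIH human leukocyte IFN standard.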

Structures are written as SMILES.

What is called melting point is the temperature, or range, at which the solid turns liquid. For `CC(C)Cn1nnn2c3ncccc3c3ncnc-3c12` [Example 8, 1-(2-Methylpropyl)-1H-tetrazolo[1,5-a]imidazo[4,5-c][1,8]naphthyridine], the melting point was 248 to 250 °C (dec.).

With `Cc1nnnn1-c1cnccc1C(=O)O` [Example 14, 3-(5-Methyl-1H-tetrazol-1-yl)pyridine-4-carboxylic acid], the melting point was 214 to 215 °C (dec.).

For `Clc1cc2nnnn2c2cnccc12` [Example 17, 5-Chlorotetrazolo[1,5-a][1,7]naphthyridine], the melting point was in the range of 176 to 177 °C.

With `CC(C)CNc1cc2nnnn2c2cnccc12` [Example 18, N^5-(2-Methylpropyl)tetrazolo[1,5-a][1,7]naphthyridin-5-amine], the melting point fell in the range of 220 to 221 °C.

Compound `CC(C)CNc1c([N+](=O)[O-])c2nnnn2c2cnccc12` [Example 19, N^5-(2-Methylpropyl)-4-nitrotetrazolo[1,5-a][1,7]naphthyridin-5-amine] returned a melting point of 173 to 174 °C.

In the case of `CC(C)CNc1c(N)c2nnnn2c2cnccc12` [Example 20, N^5-(2-Methylpropyl)tetrazolo[1,5-a][1,7]naphthyridin-4,5-diamine], the melting point is 203 to 204.5 °C.

The compound `CC(C)Cn1nnc2c3ncnc-3c3ccncc3n21` [Example 21, 1-(2-Methylpropyl)-1H-tetrazolo[1,5-a]imidazo[4,5-c][1,7]naphthyridine] showed a melting point of 181 to 182.5 °C.

`CC(C)CNc1c([N+](=O)[O-])cnc2cccnc12` [Example 29, N^4-(2-Methylpropyl)-3-nitro[1,5]naphthyridin-4-amine] displayed a melting point of 97 to 99 °C.

Take `CC(C)Cn1cnc2cnc3cccnc3c21` [Example 30, 1-(2-Methylpropyl)-1H-imidazo[4,5-c][1,5]naphthyridine]: the melting point lay within 82 to 84 °C.

The compound `Cc1nc2cnc3cccnc3c2n1CC(C)C` [Example 34, 2-Methyl-1-(2-methylpropyl)-1H-imidazo[4,5-c][1,5]naphthyridine] returned a melting point of 118 to 119 °C.

In the case of `CC(C)(C)OC(=O)NCCCCNc1c([N+](=O)[O-])cnc2cccnc12` [Example 41, 1,1-Dimethylethyl N-{4-[(3-Nitro[1,5]naphthyridin-4-yl)amino]butyl}carbamate], the melting point was 137 to 138 °C.

As for `CCCCc1nc2cnc3cccnc3c2n1CCCCNC(=O)OC(C)(C)C` [Example 43, 1,1-Dimethylethyl N-[4-(2-Butyl-1H-imidazo[4,5-c][1,5]naphthyridin-1-yl)butyl]carbamate], the melting point lay within 96 to 98 °C.

As to `CCCCc1nc2c(N)nc3cccnc3c2n1CCCCNC(=O)OC(C)(C)C` [Example 45, 1,1-Dimethylethyl N-[4-(4-Amino-2-butyl-1H-imidazo[4,5-c][1,5]naphthyridin-1-yl)butyl]carbamate], the melting point was 148.5 to 149.5 °C. Moreover, the TNF induction entry in the series on TNF (Dose Concentration 0.1 μM) is on record as “−”. The TNF induction result in the series with TNF (Dose Concentration 1.0 μM) is reported as “+”. In addition, in the series on TNF (Dose Concentration 10.0 μM), the TNF induction entry was “+”. Besides, the TNF induction result in the series on TNF (Dose Concentration 100.0 μM) is listed as “−”. In addition, the IFN induction result in the series on IFN (Dose Concentration 0.1 μM) is reported as “+”. For the same compound, the IFN induction result in the series with IFN (Dose Concentration 1.0 μM) is “+”. In addition, the IFN induction result with IFN (Dose Concentration 10.0 μM) is on record as “+”. For the same compound, the IFN induction entry in the series with IFN (Dose Concentration 100.0 μM) is listed as “−”.

`CCCCc1nc2c(N)nc3cccnc3c2n1CCCCN` [Example 46, 4-(4-Amino-2-butyl-1H-imidazo[4,5-c][1,5]naphthyridin-1-yl)butaneamine] came in with a melting point of 212 to 213 °C. In the series with TNF (Dose Concentration 0.1 μM), the TNF induction result is given as “+”. Moreover, the TNF induction result in the series on TNF (Dose Concentration 1.0 μM) is reported as “+”. Further, the TNF induction result in the series on TNF (Dose Concentration 10.0 μM) is given as “+”. For the same compound, in the series with TNF (Dose Concentration 100.0 μM), the TNF induction result is listed as “+”. Moreover, in the series on IFN (Dose Concentration 0.1 μM), the IFN induction result is “+”. Also, the IFN induction entry in the series with IFN (Dose Concentration 1.0 μM) is “+”. The IFN induction result with IFN (Dose Concentration 10.0 μM) is “+”.

Regarding `CC(C)(O)CNc1c([N+](=O)[O-])cnc2cccnc12` [Example 59, 1,1-Dimethyl-2-[(3-nitro[1,5]naphthyridin-4-yl)amino]ethanol], the melting point lay within 184.5 to 186 °C.

Regarding `CCCCc1nc2c(N)nc3cccnc3c2n1CC(C)(C)O` [Example 62, 1,1-Dimethyl-2-(4-amino-2-butyl[1,5]napthyridin-1-yl)ethanol], the melting point is 177 to 179 °C. Also, in the series on TNF (Dose Concentration 0.1 μM), the TNF induction result is recorded as “+”. For the same compound, the TNF induction result in the series with TNF (Dose Concentration 1.0 μM) is on record as “+”. Besides, the TNF induction entry in the series on TNF (Dose Concentration 10.0 μM) was “+”. Besides, in the series with TNF (Dose Concentration 100.0 μM), the TNF induction result is “+”. In the series with IFN (Dose Concentration 0.1 μM), the IFN induction result was “+”. Moreover, the IFN induction entry in the series with IFN (Dose Concentration 1.0 μM) was “+”. Moreover, the IFN induction entry in the series with IFN (Dose Concentration 10.0 μM) was “+”. For the same compound, in the series on IFN (Dose Concentration 100.0 μM), the IFN induction entry is “+”.

In turn, `CC(C)(O)Cn1c(Cc2ccccc2)nc2c(N)nc3cccnc3c21` [Example 65, 1,1-Dimethyl-2-(4-amino-2-phenylmethyl[1,5]napthyridin-1-yl)ethanol] displayed a melting point of 211 to 213 °C. In addition, the TNF induction entry in the series on TNF (Dose Concentration 0.1 μM) was “−”. For the same compound, the TNF induction entry with TNF (Dose Concentration 1.0 μM) is “+”. Moreover, the TNF induction entry in the series on TNF (Dose Concentration 10.0 μM) is given as “+”. In addition, the TNF induction entry in the series on TNF (Dose Concentration 100.0 μM) is “+”. Moreover, the IFN induction result in the series with IFN (Dose Concentration 0.1 μM) is “+”. In addition, the IFN induction result in the series with IFN (Dose Concentration 1.0 μM) is listed as “+”. The IFN induction result with IFN (Dose Concentration 10.0 μM) was “+”. Also, the IFN induction entry with IFN (Dose Concentration 100.0 μM) is listed as “+”.

In turn, `O=[N+]([O-])c1cnc2cccnc2c1NCc1ccccc1` [Example 66, N-Phenylmethyl-3-nitro[1,5]naphthyridin-4-amine] came in with a melting point of 127 to 129 °C.

`CCOCc1nc2cnc3cccnc3c2n1Cc1ccccc1` [Example 68, 2-Ethoxymethyl-1-phenylmethyl-1H-imidazo[4,5-c][1,5]naphthyridine] yielded a melting point of 118 to 119 °C.

On to `CCOCc1nc2c(N)nc3cccnc3c2n1Cc1ccccc1` [Example 70, 2-Ethoxymethyl-1-phenylmethyl-1H-imidazo[4,5-c][1,5]naphthyridin-4-amine], for which the melting point is 173 to 174 °C. Also, the TNF induction entry with TNF (Dose Concentration 0.1 μM) was “−”. Besides, the TNF induction entry in the series on TNF (Dose Concentration 1.0 μM) is “+”. Also, the TNF induction entry with TNF (Dose Concentration 10.0 μM) is recorded as “+”. The TNF induction entry in the series with TNF (Dose Concentration 100.0 μM) was “−”. In the series with IFN (Dose Concentration 0.1 μM), the IFN induction result is given as “+”. Moreover, in the series with IFN (Dose Concentration 1.0 μM), the IFN induction entry was “+”. Besides, the IFN induction entry with IFN (Dose Concentration 10.0 μM) is given as “+”. In the series with IFN (Dose Concentration 100.0 μM), the IFN induction result is recorded as “−”.

On to `CC(C)OCCCNc1c([N+](=O)[O-])cnc2cccnc12` [Example 71, N^4-(3-Isopropoxypropyl)-3-nitro[1,5]naphthyridin-4-amine], for which the melting point was 62.5 to 63.5 °C.

As for `CCCCc1nc2c(N)nc3cccnc3c2n1CCCOC(C)C` [Example 75, 2-Butyl-1-(3-isopropoxypropyl)-1H-imidazo[4,5-c][1,5]naphthyridine-4-amine], the melting point lay in the range of 174 to 175 °C. The TNF induction result in the series with TNF (Dose Concentration 0.1 μM) is given as “−”. Moreover, the TNF induction result in the series on TNF (Dose Concentration 1.0 μM) is on record as “−”. Moreover, in the series with TNF (Dose Concentration 10.0 μM), the TNF induction entry is given as “+”. The TNF induction result in the series with TNF (Dose Concentration 100.0 μM) is given as “−”. Also, in the series on IFN (Dose Concentration 0.1 μM), the IFN induction result is on record as “−”. The IFN induction result in the series with IFN (Dose Concentration 1.0 μM) is recorded as “+”. Moreover, the IFN induction result in the series with IFN (Dose Concentration 10.0 μM) is “+”. Moreover, the IFN induction entry with IFN (Dose Concentration 100.0 μM) is on record as “+”.

Consider `CCCCOCCCn1c(CCCC)nc2cnc3cccnc3c21` [Example 78, 1-(3-Butoxypropyl)-2-butyl-1H-imidazo[4,5-c][1,5]naphthyridine], for which the melting point was 56.5 to 57.5 °C.

Take `CCCCOCCCn1c(CCCC)nc2c(N)nc3cccnc3c21` [Example 80, 1-(3-Butoxypropyl)-2-butyl-1H-imidazo[4,5-c][1,5]naphthyridin-4-amine]: the melting point was in the range of 101 to 101.5 °C. In addition, in the series on TNF (Dose Concentration 0.1 μM), the TNF induction result is on record as “−”. Further, the TNF induction result in the series with TNF (Dose Concentration 1.0 μM) was “−”. Also, the TNF induction result with TNF (Dose Concentration 10.0 μM) is on record as “+”. In addition, the TNF induction result with TNF (Dose Concentration 100.0 μM) is listed as “−”. Besides, in the series on IFN (Dose Concentration 0.1 μM), the IFN induction entry is listed as “−”. Also, the IFN induction entry with IFN (Dose Concentration 1.0 μM) is recorded as “+”. Besides, the IFN induction entry in the series with IFN (Dose Concentration 10.0 μM) was “+”. For the same compound, the IFN induction entry in the series on IFN (Dose Concentration 100.0 μM) is “−”.

Take `O=[N+]([O-])c1cnc2cccnc2c1NCCOc1ccccc1` [Example 81, N^4-(2-Phenoxyethyl)-3-nitro[1,5]naphthyridin-4-amine]: the melting point fell in the range of 107 to 108 °C.

Consider `CCCCc1nc2cnc3cccnc3c2n1CCOc1ccccc1` [Example 83, 2-(2-Butyl-1H-imidazo[4,5-c][1,5]naphthyridin-1-yl)ethyl Phenyl Ether], for which the melting point fell in the range of 150 to 150.5 °C.

In turn, `CCCCc1nc2c(N)nc3cccnc3c2n1CCOc1ccccc1` [Example 85, 2-Butyl-1-(2-phenoxyethyl)-1H-imidazo[4,5-c][1,5]naphthyridin-4-amine] came in with a melting point of 159 to 159.2 °C. Moreover, the TNF induction result in the series with TNF (Dose Concentration 0.1 μM) is given as “−”. Moreover, the TNF induction entry in the series with TNF (Dose Concentration 1.0 μM) is recorded as “+”. The TNF induction entry in the series on TNF (Dose Concentration 10.0 μM) was “+”. For the same compound, in the series on TNF (Dose Concentration 100.0 μM), the TNF induction entry is “−”. The IFN induction result in the series with IFN (Dose Concentration 0.1 μM) was “+”. Also, in the series on IFN (Dose Concentration 1.0 μM), the IFN induction result is recorded as “+”. Besides, in the series on IFN (Dose Concentration 10.0 μM), the IFN induction result was “+”. Further, the IFN induction result in the series with IFN (Dose Concentration 100.0 μM) is “−”.

As to `CC(C)(C)OC(=O)NCCNc1c([N+](=O)[O-])cnc2cccnc12` [Example 86, 1,1-Dimethylethyl N-{2-[(3-Nitro[1,5]naphthyridin-4-yl)amino]ethyl}carbamate], the melting point is 149 to 151 °C.

The compound `CCCCc1nc2c(N)nc3cccnc3c2n1CCNC(=O)C1CCC(=O)N1` (centres unmarked) [Example 213] had a melting point of 135 to 138 °C.
